In paper PMC5335257, “Promoting in vivo remyelination with small molecules: a neuroreparative pharmacological treatment for Multiple Sclerosis” (Scientific Reports, 2017):
Entries after “also recorded” stand apart in the source; their conditions may differ.

What was measured:
OPCs from P0 mice = assay: Survival assay (Casp3+-A2B5+ cells); type: cell-based, mouse; details: murine P0 OPCs, 1 μM, 2 DIV
Description: We isolated OPCs, as previously described. Briefly, a stock papain solution was prepared containing ([…]; Worthington Biochemical), L-cysteine (0.2 mg/ml; Sigma), and EDTA (0.2 mg/ml; Sigma) in Hank’s Balanced Salt Solution (HBSS; Invitrogen) without Ca^2+ and Mg[2]. Then, the cerebral cortices of P0 CD1 mice were dissected out and placed for 5 minutes at 37 °C in a medium containing the stock papain solution in HBSS with Ca^2+ and Mg^2+ (1:10; Invitrogen) in order to easily remove the meninges. Once meninges and choroid plexus were removed, the tissue was enzymatically dissociated for 5 minutes at 37 °C again by using the papain solution (1:10 in HBSS without Ca^2+ and Mg^2+) and the digested tissue was then filtered through a 100 μm nylon mesh strainer (BD Biosciences) and seeded on poly-L-ornithine-coated (Sigma) 75 cm^2 flasks in DMEM medium (Invitrogen) containing 10% foetal bovine serum (FBS; BioWhittaker) and 100 U/mL penicillin, 0.1 mg/mL streptomycin and 0.25 μg/ml Amphotericin B antibiotic antimycotic solution (Sigma). Cultures were maintained at 37 °C and 5% CO2, and the medium was changed every 3 days. […] The resulting enriched oligodendrocyte progenitor cell suspension was counted and seeded. […]

[1] = design: method as in PMID 23077723, PMID 25264825; details: cited from earlier work
[2] = test system: corpus callosum of cuprizone-fed mice; assay: In vivo remyelination, cuprizone demyelination model; design: species or system C57/BL6 male mice
Description: The protocol used was modified from previously described. Demyelination was induced by feeding 8 weeks old male C57/BL6 mice ad libitum with 0.2% cuprizone (bis-cyclo-hexanone-oxaldihydrazone; Sigma) mixed with milled chow (Altromin) for 5 weeks. A control group was maintained in the same conditions but fed with the chow without cuprizone. After cuprizone withdrawal, mice were intraperitoneally injected on 3 alternate days with PDE7-GSK3 inhibitors (VP1.15 or VP3.15; 10 mg/kg of animal) using a solution of the compound (100 mg/mL in DMSO) diluted 1:50 in a solution of 5% Tocrisolve (Tocris, UK) in distilledwater[36] or with the vehicle. 1 week after the cuprizone withdrawal, mice were transcardially perfused with 4% PFA in phosphate buffer. Another group was maintained for 3 weeks after cuprizone withdrawal and injected with 3 doses per week on alternate days of the PDE7-GSK3 inhibitors (10 mg/kg of animal per dose see above) or the vehicle and then perfused. The corpus callosum of three animals per condition was studied. For histological examination, forebrain coronal sections (20 μm) were taken of the rostral part of the corpus callosum as previously described[80][81] and stained with eriochrome cyanine using a standard protocol in order to study the myelin. Briefly, cryosections on glass slides were immersed in acetone for 5 minutes, dried and submerged in eriochrome cyanine solution (Sigma) for 1 hour and then differentiated in 5% (w/v) iron alum for 5–10 minutes, followed by a second differentiation with borax-ferricyanide solution for 5 minutes. The stained area was measured with the Image J software and related to the total analyzed area. For the immunofluorescence analysis, tissue sections were stained with anti-MBP (1:200; Serotec; Cat#MCA4095) for myelin, anti-PDGFRα (1:200; Santa Cruz; Cat#sc338) for OPCs, anti-CC1 (1:100; Calbiochem, Cat#OP80) and anti-GFAP (Glial fibrillary acidic protein; 1:200; Dako; Cat#Z0334) for astrocytes, and tomato lectin (TL; 1:67; Sigma; Cat#L0651) for microglia. Optical images were acquired using an Olympus BX61 microscope and fluorescence images were taken using a DFC480 FX digital camera (Leica) coupled to a Leica DM5000 B microscope or a confocal SP5 resonant scanner (Leica). Myelin staining (with MBP and eriochrome cyanine) and CC1 staining were quantified by taking pictures of non-overlapping fields of coronal sections of the corpus callosum, between the lateral ventricles (2 fields per section, 5–6 sections of each mice; using a x20 objective) and by measuring the fluorescence intensity or blue staining using the Image J software. The number of OPCs per field was also counted in pictures of the midline of the corpus callosum using the x40 objective (4–6 sections per mice). Astrocytes and microglia were evaluated in pictures of the same area of the corpus callosum using the x40 objective and quantified by measuring the area occupied by GFAP or TL staining respectively using the Image J software (4–6 sections per mice). Data were expressed as the mean ± SEM.

Which results are given for `c1ccc(-c2n/c(=N/CCN3CCOCC3)sn2-c2ccccc2)cc1` [VP3.15]?
OPC survival (Casp3+-A2B5+ apoptotic cells) (OPCs from P0 mice): without affecting; emetic side effects [1]: without emetic side effects; myelin staining (eriochrome cyanine) in corpus callosum vs vehicle ([2]; 10 mg/kg i.p. on 3 alternate days, 1 week after cuprizone withdrawal): significantly higher myelin staining; also recorded: almost complete remyelination; myelin quantification by MBP immunodetection ([2]; 10 mg/kg i.p., after cuprizone withdrawal): confirmed these results, with similar effects; microglial activation (TL staining) vs vehicle ([2]; 1 week after cuprizone withdrawal): Neither VP1.15 nor VP3.15 induced changes; number of OPCs (PDGFRα+ cells) vs vehicle ([2]; one week after cuprizone withdrawal): significantly lower number of OPCs
